Results on three molecules are retold here after patent US7294618B2, “Glucopyranosyloxypyrazole derivatives and medicinal use thereof” (Kissei Pharmaceutical Co., Ltd., priority 2001, dated 2007).

The target in test [1] is T1, human SGLT2 (Homo sapiens, UniProt P31639, I433V).
T1 construct: expressed in transfected cells; host or cells: COS-7 cells (RIKEN CELL BANK RCB0539), transient, electroporation of KL29
T1 sequence (P31639 1-672 I433V): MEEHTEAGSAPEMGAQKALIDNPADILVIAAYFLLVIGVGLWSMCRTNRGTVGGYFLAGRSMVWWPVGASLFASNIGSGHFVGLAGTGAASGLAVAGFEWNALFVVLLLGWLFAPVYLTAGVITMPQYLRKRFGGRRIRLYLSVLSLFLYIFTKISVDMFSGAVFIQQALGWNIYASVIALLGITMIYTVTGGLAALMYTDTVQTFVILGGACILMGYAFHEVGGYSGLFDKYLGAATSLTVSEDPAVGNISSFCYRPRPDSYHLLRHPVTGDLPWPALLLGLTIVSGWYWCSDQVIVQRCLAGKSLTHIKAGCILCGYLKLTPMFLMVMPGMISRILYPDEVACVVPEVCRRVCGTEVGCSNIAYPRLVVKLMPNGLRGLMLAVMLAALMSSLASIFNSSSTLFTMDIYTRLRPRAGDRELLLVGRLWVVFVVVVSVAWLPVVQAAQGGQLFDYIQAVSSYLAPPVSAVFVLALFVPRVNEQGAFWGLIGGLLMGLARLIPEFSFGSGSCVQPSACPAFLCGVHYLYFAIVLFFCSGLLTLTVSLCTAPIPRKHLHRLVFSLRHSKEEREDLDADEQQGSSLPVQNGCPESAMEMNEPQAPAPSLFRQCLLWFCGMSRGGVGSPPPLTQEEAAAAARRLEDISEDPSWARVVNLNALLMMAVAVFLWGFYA
Briefly: Assay for inhibitory effect on human SGLT2 activity (uptake of methyl-α-D-glucopyranoside). The format is cell-based. To be noted: for IC50: COS-7 cells expressing transiently human SGLT2, uptake of methyl-α-D-(U-14C)glucopyranoside, 37° C., 2 hours. The procedure:
• Assay for Inhibitory Effect on Human SGLT2 Activity • 1) Construction of the Plasmid Vector Expressing Human SGLT2
Preparation of the cDNA library for PCR amplification was performed by reverse transcription of a total RNA deprived from human kidney (Ori gene) with oligo dT as the primer, using SUPERSCRIPT Preamplification System (Gibco-BRL: LIFE TECHNOLOGIES). The DNA fragment coding for human SGLT2 was amplified by the PCR reaction, in which the human kidney cDNA library described above was used as the template and the following oligo nucleotides 0702F and 0712R, presented as Sequence Numbers 1 and 2 respectively, were used as the primers. The amplified DNA fragment was ligated into pCR-Blunt (Invitrogen), a vector for cloning, according to standard method of the kit. The Escherichia coli HB101 was transformed according to usual method and then selection of the transformants was performed on the LB agar medium containing 50 μg/mL of kanamycin. After plasmid DNA was extracted and purified from the one of the transformants, amplifying of the DNA fragment coding for human SGLT2 was performed by the PCR reaction, in which the following oligo nucleotides 0714F and 0715R, presented as Sequence Numbers 3 and 4 respectively, were used as the primers. The amplified DNA fragment was digested with restriction enzymes, Xho I and Hind III, and then purified with Wizard Purification System (Promega). This purified DNA fragment was inserted at the corresponding restriction sites of pcDNA3.1 (−) Myc/His—B (Invitrogen), a vector for expressing of fusion protein. The Escherichia coli HB101 was transformed according to usual method and then selection of the transformant was performed on the LB agar medium containing 100 μg/mL of ampicillin. After plasmid DNA was extracted and purified from this transformant, the base sequence of the DNA fragment inserted at the multi-cloning sites of the vector pcDNA3. 1 (−) Myc/His—B was analyzed. […] Sequentially, a clone in which valine is substituted for isoleucine-433 was obtained. This plasmid vector expressing human SGLT2 in which the peptide presented as Sequence Number 5 is fused to the carboxyl terminal alanine residue was designated KL29.
• 2) Preparation of the Cells Expressing Transiently Human SGLT2
KL29, the plasmid coding human SGLT2, was transfected into COS-7 cells (RIKEN CELL BANK RCB0539) by electroporation. Electroporation was performed with EC100 Electroporater (E-C APPARATUS CORPORATION) under the condition: 400 V, 1260 μF, 3.2×10^6 cells of COS-7 cell and 20 μg of KL29 in 800 μL of OPTI-MEM I medium (Gibco-BRL: LIFE TECHNOLOGIES) in the 0.4 cm type cuvette. After the gene transfer, the cells were harvested by centrifugation and resuspended with OPTI-MEM I medium (3.2 mL/cuvette). […]

For test [2] the following is noted: normal mice; J. Med. Chem., Vol. 39, pp. 3920-3928 (1996); cited from earlier work.

A value given as a limit tells only on which side of the number the result lay.

In the case of `CSc1ccc(Cc2c(C(F)(F)F)[nH][nH]c2=O)cc1` [WAY-123783], in test [1], the IC50 was more than 100000 nM. Moreover, in test [1] (statement in words), the “inhibitory activity in human SGLT2” value is “extremely weak”. The “amount of excreted glucose” value in test [2] is listed as “increased”.

Regarding `Cc1c(Cc2ccc(OC(C)C)cc2)c(O[C@@H]2O[C@H](CO)[C@@H](O)[C@H](O)[C@H]2O)nn1-c1ccccc1` [Example 20, 3-(β-D-Glucopyranosyloxy)-4-[(4-isopropoxyphenyl)methyl]-5-methyl-1-phenyl-1H-pyrazole], 200 nM corresponded to half-maximal inhibition in test [1] (IC50).

Consider `CCc1ccc(Cc2c(O[C@@H]3O[C@H](CO)[C@@H](O)[C@H](O)[C@H]3O)nn(-c3ccccc3)c2C)cc1` [Example 18, 4-[(4-Ethylphenyl)methyl]-3-(β-D-glucopyranosyloxy)-5-methyl-1-phenyl-1H-pyrazole], for which, in test [1], it took 270 nM to reach half-maximal inhibition (IC50).

A word on the IC50: it is the midpoint of a concentration-inhibition curve.
